Where a name gives a salt, the structure may show the parent alone. Read-outs that look alike come from different tables or passages of the source.
Details: for hygroscopicity / deliquescence by DVS profile (in words): hydrobromide salt
Protocol: DVS analysis was performed on two of the HCl salts of pridopidine (HCl salt of pridopidine batches A and B). A full two cycle sorption and desorption profile was obtained for a third HCl salt of pridopidine (hydrochloride salt of pridopidine batch C).
An additional run was performed in the mid-eighties relative humidity range in order to indentify the transition point in more detail. (See FIG. 9). […] Dynamic vapour sorption (DVS) measurements were conducted using a Q5000 SA from TA instruments.
Prior to the first sorption cycle the sample was equilibrated at 20% RH and the initial weight recorded. Samples were analyzed in an aluminium pan. Humidity was brought down to 0% RH and the sample dried until the weight had stabilized within a given limit. The temperature was held constant at 25° C. Maximum step time was 720 min. Gas flow was 200 cm^3/min.

Br.CCCN1CCC(c2cccc(S(C)(=O)=O)c2)CC1 [Pridopidine hydrobromide, 4-(3-methanesulfonyl-phenyl)-1-propyl-piperidine hydrobromide salt]
weight gained between 0 and 95% RH (DVS), lost again during desorption (0-95% RH, two sorption/desorption cycles, 25° C.): approximately 0.15%
hygroscopicity / deliquescence by DVS profile (in words) (0-95% RH): non-hygroscopic and non-deliquescent
hygroscopicity / deliquescence by DVS profile (in words) (0-95% RH, listed as NS30016-HBr salt): non-hygroscopic
weight gained at the 95% relative humidity (RH) level (DVS) (95% RH, 25° C.): less than 1%

CCCN1CCC(c2cccc(S(C)(=O)=O)c2)CC1 [hydrochloride salt of pridopidine, hydrochloride salt of 4-(3-methanesulfonyl-phenyl)-1-propyl-piperidine, reference compound]
weight gain at 90% relative humidity (DVS) (90% RH step, first sorption cycle): approximately 80%
state of specimen at the end of the DVS cycle (additional run with smaller steps in the mid-eighties RH range (80-90-80%)): completely dissolved

— patent publication US9814706B2, “Hydrobromide salt of pridopidine” (Teva Pharmaceuticals International GmbH, priority 2011, dated 2017)
